These results are taken from ChEMBL document CHEMBL1212818, “Polyamines inhibit carbonic anhydrases by anchoring to the zinc-coordinated water molecule” (J Med Chem, 2010).

Among the targets are Carbonic anhydrase 9 (Homo sapiens, UniProt Q16790); Carbonic anhydrase 12 (Homo sapiens, UniProt O43570); Carbonic anhydrase 1 (Homo sapiens, UniProt P00915); Carbonic anhydrase 2 (Homo sapiens, UniProt P00918); Carbonic anhydrase 3 (Homo sapiens, UniProt P07451); Carbonic anhydrase 4 (Homo sapiens, UniProt P22748); Carbonic anhydrase 6 (Homo sapiens, UniProt P23280); Carbonic anhydrase 7 (Homo sapiens, UniProt P43166); Carbonic anhydrase 13 (Mus musculus, UniProt Q9D6N1); Carbonic anhydrase 14 (Homo sapiens, UniProt Q9ULX7).

Another test concerns the target T1, Carbonic anhydrase 15 (Mus musculus, UniProt Q99N23).
T1 sequence (Q99N23 whole entry): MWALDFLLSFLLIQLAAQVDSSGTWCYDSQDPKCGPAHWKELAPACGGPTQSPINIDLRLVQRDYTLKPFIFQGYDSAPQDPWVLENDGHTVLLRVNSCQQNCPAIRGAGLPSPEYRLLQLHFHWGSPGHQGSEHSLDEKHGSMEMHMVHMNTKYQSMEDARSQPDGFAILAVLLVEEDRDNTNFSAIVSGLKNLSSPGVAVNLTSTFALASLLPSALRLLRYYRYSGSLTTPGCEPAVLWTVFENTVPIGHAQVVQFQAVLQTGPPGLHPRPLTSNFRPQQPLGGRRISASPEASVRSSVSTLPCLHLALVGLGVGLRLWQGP

Test [1] addresses Carbonic anhydrase 5A, mitochondrial (Homo sapiens, UniProt P35218).
For test [2], the target named is Carbonic anhydrase 5B, mitochondrial (Homo sapiens, UniProt Q9Y2D0).
Chain of Carbonic anhydrase 5B, mitochondrial (Q9Y2D0 whole entry): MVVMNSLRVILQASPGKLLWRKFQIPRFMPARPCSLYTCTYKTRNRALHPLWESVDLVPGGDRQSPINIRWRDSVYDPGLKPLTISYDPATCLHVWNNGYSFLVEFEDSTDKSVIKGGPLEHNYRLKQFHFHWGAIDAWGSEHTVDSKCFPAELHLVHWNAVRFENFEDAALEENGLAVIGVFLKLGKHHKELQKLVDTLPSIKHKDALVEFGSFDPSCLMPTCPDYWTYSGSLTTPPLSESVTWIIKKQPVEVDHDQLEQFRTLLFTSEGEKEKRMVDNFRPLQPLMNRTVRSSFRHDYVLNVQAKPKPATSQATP

Chain of Carbonic anhydrase 4 (P22748 whole entry): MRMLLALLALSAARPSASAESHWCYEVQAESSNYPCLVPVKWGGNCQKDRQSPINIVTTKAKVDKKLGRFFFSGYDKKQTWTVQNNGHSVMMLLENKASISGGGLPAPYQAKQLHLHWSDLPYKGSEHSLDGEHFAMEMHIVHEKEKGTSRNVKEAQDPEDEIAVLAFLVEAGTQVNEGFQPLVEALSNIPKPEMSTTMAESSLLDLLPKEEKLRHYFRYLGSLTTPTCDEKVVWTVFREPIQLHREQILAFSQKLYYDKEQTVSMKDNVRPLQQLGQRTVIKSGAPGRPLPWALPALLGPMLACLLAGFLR
Chain of Carbonic anhydrase 6 (P23280 whole entry): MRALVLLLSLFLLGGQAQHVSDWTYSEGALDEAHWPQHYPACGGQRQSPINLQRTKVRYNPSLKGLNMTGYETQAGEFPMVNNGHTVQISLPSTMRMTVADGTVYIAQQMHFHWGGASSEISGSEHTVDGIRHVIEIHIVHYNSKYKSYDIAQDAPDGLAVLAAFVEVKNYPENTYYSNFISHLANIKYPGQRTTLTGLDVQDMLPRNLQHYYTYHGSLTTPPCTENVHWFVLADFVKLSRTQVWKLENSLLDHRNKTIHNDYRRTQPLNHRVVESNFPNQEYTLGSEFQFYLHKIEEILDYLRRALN
Chain of Carbonic anhydrase 14 (Q9ULX7 whole entry): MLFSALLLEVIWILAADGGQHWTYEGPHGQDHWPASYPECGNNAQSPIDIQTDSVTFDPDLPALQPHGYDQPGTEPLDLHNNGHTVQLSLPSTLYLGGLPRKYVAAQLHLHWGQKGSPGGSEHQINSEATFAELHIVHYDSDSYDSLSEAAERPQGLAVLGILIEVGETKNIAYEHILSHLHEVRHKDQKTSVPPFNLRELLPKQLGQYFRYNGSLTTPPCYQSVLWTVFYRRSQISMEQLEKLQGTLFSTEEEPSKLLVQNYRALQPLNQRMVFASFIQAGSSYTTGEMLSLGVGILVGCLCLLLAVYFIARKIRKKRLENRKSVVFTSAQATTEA
Chain of Carbonic anhydrase 12 (O43570 whole entry): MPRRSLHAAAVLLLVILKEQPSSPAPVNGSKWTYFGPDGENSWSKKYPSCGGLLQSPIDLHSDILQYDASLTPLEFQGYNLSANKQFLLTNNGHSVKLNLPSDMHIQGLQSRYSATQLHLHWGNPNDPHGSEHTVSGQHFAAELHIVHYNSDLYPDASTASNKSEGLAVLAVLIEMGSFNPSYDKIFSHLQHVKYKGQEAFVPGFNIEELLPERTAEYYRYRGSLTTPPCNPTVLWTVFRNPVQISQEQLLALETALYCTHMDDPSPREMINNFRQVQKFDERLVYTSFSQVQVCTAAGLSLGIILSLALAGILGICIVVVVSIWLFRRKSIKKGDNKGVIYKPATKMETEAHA
Chain of Carbonic anhydrase 3 (P07451 whole entry): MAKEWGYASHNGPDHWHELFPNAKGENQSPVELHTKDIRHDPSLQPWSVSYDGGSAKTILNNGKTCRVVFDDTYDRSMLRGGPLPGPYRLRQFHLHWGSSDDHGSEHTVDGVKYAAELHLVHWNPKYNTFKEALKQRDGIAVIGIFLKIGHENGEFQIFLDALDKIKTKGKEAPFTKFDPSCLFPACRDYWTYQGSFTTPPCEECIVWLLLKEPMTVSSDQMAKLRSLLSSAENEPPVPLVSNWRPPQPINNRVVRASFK
Chain of Carbonic anhydrase 13 (Q9D6N1 whole entry): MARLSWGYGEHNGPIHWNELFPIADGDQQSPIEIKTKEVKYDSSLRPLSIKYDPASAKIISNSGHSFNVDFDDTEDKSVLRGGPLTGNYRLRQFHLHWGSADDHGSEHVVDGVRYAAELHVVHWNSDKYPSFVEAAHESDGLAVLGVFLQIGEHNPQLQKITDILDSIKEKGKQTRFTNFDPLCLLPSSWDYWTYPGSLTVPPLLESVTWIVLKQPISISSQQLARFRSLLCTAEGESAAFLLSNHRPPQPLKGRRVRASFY
Chain of Carbonic anhydrase 7 (P43166 whole entry): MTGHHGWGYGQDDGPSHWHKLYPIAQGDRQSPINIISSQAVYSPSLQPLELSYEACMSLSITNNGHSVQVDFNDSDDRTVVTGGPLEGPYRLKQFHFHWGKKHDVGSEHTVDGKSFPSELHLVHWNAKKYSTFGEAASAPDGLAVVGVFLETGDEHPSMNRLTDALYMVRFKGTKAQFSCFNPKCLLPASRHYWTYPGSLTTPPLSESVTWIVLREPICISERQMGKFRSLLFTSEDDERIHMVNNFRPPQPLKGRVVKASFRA
Chain of Carbonic anhydrase 5A, mitochondrial (P35218 whole entry): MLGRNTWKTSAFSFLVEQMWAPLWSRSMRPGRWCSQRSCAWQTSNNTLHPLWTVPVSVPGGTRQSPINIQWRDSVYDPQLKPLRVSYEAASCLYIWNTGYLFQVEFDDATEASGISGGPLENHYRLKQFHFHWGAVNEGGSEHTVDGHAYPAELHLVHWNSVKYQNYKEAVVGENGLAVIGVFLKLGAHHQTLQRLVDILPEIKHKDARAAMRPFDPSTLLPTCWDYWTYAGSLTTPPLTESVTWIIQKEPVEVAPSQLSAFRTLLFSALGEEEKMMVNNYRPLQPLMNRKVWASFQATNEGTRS
Chain of Carbonic anhydrase 1 (P00915 whole entry): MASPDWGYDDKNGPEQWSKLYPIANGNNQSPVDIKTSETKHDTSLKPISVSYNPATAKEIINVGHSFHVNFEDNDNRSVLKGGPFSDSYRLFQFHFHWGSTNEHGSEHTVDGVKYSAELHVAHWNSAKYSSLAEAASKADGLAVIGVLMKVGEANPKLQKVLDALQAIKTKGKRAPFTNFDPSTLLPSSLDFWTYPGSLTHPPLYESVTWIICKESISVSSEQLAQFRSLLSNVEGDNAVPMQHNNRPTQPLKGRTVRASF

Consider `NCCNCCNCCN` [TRIENTINE], for which the Ki – broadly, the dissociation constant of the complex between target and ligand, obtained from inhibition or displacement – at Carbonic anhydrase 9 came out at 39 µM; at Carbonic anhydrase 12, 57 µM; at Carbonic anhydrase 15, 59 µM; on Carbonic anhydrase 1 it was 100 µM; on Carbonic anhydrase 2, 64 µM; at Carbonic anhydrase 3, 48 µM. The Ki on Carbonic anhydrase 4 amounted to 35 µM; in [1] it was 38 µM; in test [2] it was 49 µM; at Carbonic anhydrase 6 it was 43 µM; on Carbonic anhydrase 7 it was 45 µM; at Carbonic anhydrase 13, 52 µM. On Carbonic anhydrase 14, this compound registered a Ki of 12.1 µM.
